# From patent US20220306603A1, “TARGETING DNA REPAIR IN TUMOR CELLS VIA INHIBITION OF ERCC1-XPF” (The Governors of the University of Alberta, priority 2019, published 2022)
# Entries after “also recorded” stand apart in the source; their conditions may differ.
# Assays:
# [1] = target: T1, ERCC1-XPF (Homo sapiens, UniProt Q92889); assay: Microplate fluorescence incision assay of ERCC1-XPF endonuclease activity; format: biochemical; conditions: for inhibition of ERCC1-XPF endonuclease activity (in words): compounds 10 μM each
# T1 construct: His6; made in house; host or cells: E. coli BL21 (DE3)
# T1 sequence (Q92889 1-916): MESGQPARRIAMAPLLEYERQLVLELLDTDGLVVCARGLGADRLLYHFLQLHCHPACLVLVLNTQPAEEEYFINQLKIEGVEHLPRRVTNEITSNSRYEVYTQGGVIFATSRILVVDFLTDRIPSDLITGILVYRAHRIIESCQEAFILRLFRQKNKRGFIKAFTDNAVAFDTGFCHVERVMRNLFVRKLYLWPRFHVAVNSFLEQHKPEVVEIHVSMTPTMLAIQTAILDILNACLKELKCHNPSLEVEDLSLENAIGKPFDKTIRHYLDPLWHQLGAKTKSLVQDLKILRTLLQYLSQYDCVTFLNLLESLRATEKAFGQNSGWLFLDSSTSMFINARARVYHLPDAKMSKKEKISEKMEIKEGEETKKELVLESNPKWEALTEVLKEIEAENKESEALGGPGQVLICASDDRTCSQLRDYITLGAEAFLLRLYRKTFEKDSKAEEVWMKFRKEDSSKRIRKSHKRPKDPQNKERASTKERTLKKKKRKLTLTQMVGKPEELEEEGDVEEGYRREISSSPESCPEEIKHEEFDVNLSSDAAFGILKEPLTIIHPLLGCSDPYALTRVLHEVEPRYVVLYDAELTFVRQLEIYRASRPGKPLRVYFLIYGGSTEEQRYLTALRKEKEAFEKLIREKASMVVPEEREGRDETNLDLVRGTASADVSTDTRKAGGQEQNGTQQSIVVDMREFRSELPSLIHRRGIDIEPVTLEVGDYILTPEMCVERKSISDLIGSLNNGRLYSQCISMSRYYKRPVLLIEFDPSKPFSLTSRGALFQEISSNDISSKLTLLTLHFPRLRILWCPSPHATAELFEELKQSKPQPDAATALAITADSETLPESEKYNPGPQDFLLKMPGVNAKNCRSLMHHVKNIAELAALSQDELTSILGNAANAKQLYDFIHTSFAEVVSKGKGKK
# Excerpt: This assay has been previously described (29), and utilizes a stem-loop substrate (composed of a 10mer-duplex stem and a 20mer-oligodT single-strand loop), labelled on the 5′-terminus with 6-FAM and 3′ with the quencher dabcyl.
# Human ERCC1-XPF wild-type protein was obtained as previously described (29). Basically, the recombinant protein was expressed from a bicistronic plasmid (provided by Dr. Richard Wood, University of Texas MD Anderson Cancer Center, Smithville, Tex.) in the E. coli BL21 (DE3) strain. Since both XPF and ERCC1 contained a polyhistidine (His-6) tag, the proteins extracted from E. coli were incubated with a ProBond Nickel-Chelating Resin (Thermo Fisher Scientific). Protein eluted from the Ni affinity column was subsequently loaded into a Hi-trap heparin column (GE Healthcare). Fractions recovered from the heparin column that contained ERCC1-XPF were dialyzed, concentrated and stored at −80° C. in 10 mM HEPES pH 7.4, 2.5 mM p-mercaptoethanol, 0.01% CHAPS, 0.25 mM EDTA, 50% glycerol and 25 mM NaCl.
# A previously described protocol (2,29) was followed.
# [2] = target: CYP3A4-M (Homo sapiens, UniProt P08684); assay: CYP450 inhibition, CYP3A4-M
# [3] = test system: HCT116 cells; assay: Clonogenic survival assay, cyclophosphamide treatment; format: cell-based, human; conditions: cyclophosphamide 0-300 μM, compound 1-4 μM
# Experimental: Plates were incubated for another 8 days at 37° C. in a 5% CO2 atmosphere for colony formation. After this period plates were stained with crystal violet, colonies were counted, and plating efficiency and surviving fraction were calculated.
# [4] = Microsomal stability in vitro (human liver microsomes)
# [5] = test system: five CYP450 enzymes (CYP1A2, CYP2C9, CYP2C19, CYP2D6, CYP3A4-M); assay: ADME screening: CYP inhibition (five CYP450 enzymes); conditions: human
# [6] = test system: five CYP450 tested enzymes; assay: as above; conditions: Table 8
# [7] = test system: HCT116 cells; assay: Cellular repair of UV-induced cyclobutane pyrimidine dimers (immunofluorescence); format: cell-based, human
# Experimental: Protocol of Mirzayans et al. was followed with minor modifications (30). Approximately 1×10^5 HCT116 cells were seeded on each coverslip and allowed to attach overnight. Medium was then removed and cells were treated for one hour with the desired compound. The medium was removed, and cells were exposed to 8 J/m^2 UV-C radiation (G15T8 254 nm lamp, Ushio America Inc, Cypress, Calif.) followed by adding fresh medium containing the compound. Plates were incubated at 37° C. for different periods of time up to 24 hours and fixed in 50:50 methanol/1× phosphate-buffered saline (PBS) solution, followed by replacing the methanol/PBS solution with 100% methanol and incubation in −20° C. After 20 minutes, methanol was removed, and cells were treated with PBS for 5 minutes in room temperature. After fixing, cells were permeabilized in 0.5% Triton/PBS and washed with PBS, denatured in 2 N HCl, and neutralized by twice washing with 0.1 M borate buffer pH 8.5. Cells on cover slips were washed once with PBS followed by blocking with 5% non-fat dry milk/PBS for 30 minutes. Mouse anti-thymine dimer monoclonal antibody (Cat. No. MC-062, Kamiya Biomedical Company, Seattle, Wash.) was applied to the cover slips for one hour in the dark and at room temperature. Cells were then washed with PBS containing 0.1% Tween-20 and incubated with rabbit anti-mouse IgG-Alexafluor antibody (Invitrogen, Carlsbad, Calif.) followed by two washes with PBS/(0.1%)Tween-20. Cells on coverslips were then washed with PBS, rinsed with water, and mounted on slides using DAPI glycerol mounting solution. Slides were kept at 4° C. before fluorescent microscopic evaluation and measurement of fluorescence intensity with MetaXpress Version: 6.2.1.704 software (Molecular Devices, Sunnyvale, Calif.).
# To test for inhibition of nucleotide excision repair, we monitored the cellular removal of UVC-induced cyclobutane pyrimidine dimers (CPDs) in HCT116 cells over a 24-hour period using an immunochemical assay.
# [8] = Hepatocyte stability in vitro; format: in vitro ADME; conditions: Table 8
# Chain of CYP3A4-M (P08684 whole entry): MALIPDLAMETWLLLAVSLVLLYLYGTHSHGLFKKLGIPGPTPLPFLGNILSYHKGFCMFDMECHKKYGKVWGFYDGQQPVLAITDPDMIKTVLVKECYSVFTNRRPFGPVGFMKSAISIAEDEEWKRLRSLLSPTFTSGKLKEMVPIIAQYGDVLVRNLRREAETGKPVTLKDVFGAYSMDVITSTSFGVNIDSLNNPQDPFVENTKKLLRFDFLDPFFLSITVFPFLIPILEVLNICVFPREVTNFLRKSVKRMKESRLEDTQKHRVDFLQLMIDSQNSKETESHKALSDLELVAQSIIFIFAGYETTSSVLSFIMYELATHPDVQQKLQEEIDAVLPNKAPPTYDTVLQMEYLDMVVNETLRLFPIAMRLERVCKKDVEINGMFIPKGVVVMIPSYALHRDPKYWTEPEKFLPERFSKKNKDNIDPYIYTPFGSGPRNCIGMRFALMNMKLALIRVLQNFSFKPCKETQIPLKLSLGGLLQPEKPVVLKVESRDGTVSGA
compound,measurement,setting,value
"COc1ccc2nc3cc(Cl)ccc3c(Nc3ccc(O)c(CN4CCN(CCN(C)C)CC4)c3)c2c1 [Compound A4, 4-((6-Chloro-2-methoxyacridin-9-yl)amino)-2-((4-(2-(dimethylamino)ethyl)piperazin-1-yl)methyl) phenol]",enzyme activity after pre-incubation of ERCC1-XPF with compound (in words),"[1]; 3 μM compound, 10% or 5% DMSO",time-dependent loss of enzyme activity
same,inhibition of ERCC1-XPF endonuclease activity (in words),[1],marked capacity to inhibit; also recorded: potent inhibitors
same,inhibition of ERCC1-XPF endonuclease activity (in words),[1]; listed as Gen A-4,significantly better inhibitory properties
same,inhibition of CYP3A4-M (in words),[2],weak inhibitor
same,"sensitisation to cyclophosphamide, clonogenic survival (in words)",[3],no colonies were observed; also recorded: significantly sensitized the cells to cyclophosphamide; also recorded: no colonies were detected
same,"sensitisation to cyclophosphamide, clonogenic survival (in words)",[3]; listed as Gen A4,significantly sensitized the cells to cyclophosphamide
same,metabolism on exposure to human liver microsomes (in words),[4],metabolism in the midrange
same,Microsomal stability in vitro CLint (in words),[4]; Table 8,Low
same,IC50,[5],≥ 1000 nM
same,CVP inhibition (5 enzyme) (rating),[6],Good
same,inhibition of cellular removal of CPDs / thymidine dimers (in words),"[7]; 8 J/m^2 UV-C, up to 24 h post-irradiation",significantly different; also recorded: significant inhibition of removal of CPDs
same,CPDs removed over 24 hours after UV exposure,"[7]; 8 J/m^2 UV, control approximately 80%",approximately 60%
same,Hepatocyte stability in vitro CLint (in words),[8],(medium
